Our source for the IC50 values is BindingDB's records for doi:10.1021/jm00169a008 (Tsukuba Research Laboratories, 1990).

The target of this test is T1, Acetylcholinesterase (Mus musculus, UniProt P21836).
T1 sequence (P21836 whole entry): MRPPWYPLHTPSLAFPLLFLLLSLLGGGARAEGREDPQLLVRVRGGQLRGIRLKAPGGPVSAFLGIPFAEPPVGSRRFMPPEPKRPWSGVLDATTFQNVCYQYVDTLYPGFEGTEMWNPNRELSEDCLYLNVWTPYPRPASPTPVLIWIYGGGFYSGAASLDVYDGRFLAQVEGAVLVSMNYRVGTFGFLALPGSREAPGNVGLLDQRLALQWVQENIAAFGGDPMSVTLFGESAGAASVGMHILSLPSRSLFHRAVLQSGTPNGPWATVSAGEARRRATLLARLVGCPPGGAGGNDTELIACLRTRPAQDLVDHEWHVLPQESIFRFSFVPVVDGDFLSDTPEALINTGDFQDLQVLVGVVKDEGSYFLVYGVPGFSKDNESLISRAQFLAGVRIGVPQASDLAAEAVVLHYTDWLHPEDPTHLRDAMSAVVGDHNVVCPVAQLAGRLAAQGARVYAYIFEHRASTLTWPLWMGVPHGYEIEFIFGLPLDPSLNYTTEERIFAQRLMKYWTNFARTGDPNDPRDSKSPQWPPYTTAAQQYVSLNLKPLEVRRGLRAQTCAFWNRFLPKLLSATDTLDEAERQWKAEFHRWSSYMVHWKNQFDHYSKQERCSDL
The test can be described thus: Enzyme Inhibition Assay.

Where a name gives a salt, the structure may show the parent alone.

Take `Cc1cccc(CN2CCC(CCN(C)C(=O)c3ccccc3)CC2)c1`: the IC50 was determined as 0.145 µM. For the molecule `CN(CCC1CCNCC1)C(=O)c1ccccc1` [(2E)-but-2-enedioic acid; N-methyl-N-[2-(piperidin-4-yl)ethyl]benzamide], the IC50 turned out to be 26 µM. As to `CN(CCC1CCN(C(=O)c2ccccc2)CC1)C(=O)c1ccccc1` [N-[2-(1-benzoylpiperidin-4-yl)ethyl]-N-methylbenzamide], the 50% inhibitory concentration (IC50) came to 52 µM. Against the preceding molecule, the IC50 is about 2-fold higher. Take `Cc1ccccc1CN1CCC(CCN(C)C(=O)c2ccccc2)CC1` [N-methyl-N-(2-{1-[(2-methylphenyl)methyl]piperidin-4-yl}ethyl)benzamide hydrochloride]: the IC50 was determined as 0.77 µM. Next, `CN(CCC1CCN(Cc2cccc([N+](=O)[O-])c2)CC1)C(=O)c1ccccc1` [N-methyl-N-(2-{1-[(3-nitrophenyl)methyl]piperidin-4-yl}ethyl)benzamide hydrochloride]: 0.37 µM; `CN(CCC1CCN(Cc2ccc([N+](=O)[O-])cc2)CC1)C(=O)c1ccccc1` [N-methyl-N-(2-{1-[(4-nitrophenyl)methyl]piperidin-4-yl}ethyl)benzamide hydrochloride]: 3.3 µM. Molecule `CN(CCC1CCN(CCc2ccccc2)CC1)C(=O)c1ccccc1` [N-methyl-N-{2-[1-(2-phenylethyl)piperidin-4-yl]ethyl}benzamide hydrochloride] returned a 50% inhibitory concentration (IC50) of 13 µM. This IC50 is about 3.9-fold higher than that of the molecule before.

In general, IC50 refers to the concentration at which inhibition is half-maximal. Higher therefore signals weaker potency.
